{
  "source": "patent US11590115B2",
  "about": "“Pseudomonas strains and their metabolites to control fish diseases” (T3 BIOSCIENCE, LLC, priority 2020, dated 2023)",
  "key": {"Tenacibaculum maritimum": {"test_system": "Tenacibaculum maritimum", "assay": "MIC determination in broth, 96 well plates (OD600 and plating)", "format": "cell-based", "settings": "Tenacibaculum maritimum (tenacibaculosis), (MA/MB)/15° C."}, "Aeromonas salmonicida": {"test_system": "Aeromonas salmonicida", "assay": "MIC determination in broth, 96 well plates (OD600 and plating)", "format": "cell-based", "settings": "Aeromonas salmonicida (furunculosis), (TSA/TSB)/20° C."}, "Saprolegnia parasitica": {"test_system": "Saprolegnia parasitica", "assay": "Minimum lethal concentration (MLC) determination", "format": "cell-based", "settings": "Saprolegnia parasitica (saprolegniasis); GY/20° C.; in triplicate"}, "Streptococcus iniae": {"test_system": "Streptococcus iniae", "assay": "MIC determination in broth, 96 well plates (OD600 and plating)", "format": "cell-based", "settings": "Streptococcus iniae (streptococcosis), (TSAY/TSBY)/28° C."}, "Vibrio parahaemolyticus": {"test_system": "Vibrio parahaemolyticus", "assay": "MIC determination in broth, 96 well plates (OD600 and plating)"}, "Streptococcus agalactiae": {"test_system": "Streptococcus agalactiae", "assay": "MIC determination in broth, 96 well plates (OD600 and plating)", "format": "cell-based", "settings": "Streptococcus agalactiae (streptococcosis), (TSAY/TSBY)/28° C."}},
  "note": "Read-outs that look alike come from different tables or passages of the source.",
  "data": [
    {"smiles": "CSC1=C(C)C(=O)C(=O)NC1=O", "note": "[RejuAgro A]", "values": [
      {"measurement": "MIC", "setting": "Tenacibaculum maritimum", "result": 12.5, "unit": "mg/L"},
      {"measurement": "MIC", "setting": "Tenacibaculum maritimum; read-out: MIC", "result": 12.5, "unit": "mg/L"},
      {"measurement": "MIC", "setting": "Aeromonas salmonicida", "result": 1.56, "unit": "mg/L"},
      {"measurement": "MIC", "setting": "Aeromonas salmonicida; read-out: MIC", "result": 1.56, "unit": "mg/L"},
      {"measurement": "MLC (minimum lethal concentration)", "setting": "Saprolegnia parasitica", "result": 100, "unit": "mg/L"},
      {"measurement": "MIC", "setting": "Streptococcus iniae", "result": 3.13, "unit": "mg/L"},
      {"measurement": "MIC", "setting": "Streptococcus iniae; read-out: MIC", "result": 3.13, "unit": "mg/L"},
      {"measurement": "MIC", "setting": "Vibrio parahaemolyticus; Vibrio parahaemolyticus", "result": 0.39, "unit": "mg/L"},
      {"measurement": "MIC", "setting": "Vibrio parahaemolyticus; Vibrio parahaemolyticus (vibriosis, acute hepatopancreatic necrosis disease), (TSA2/TSB2)/37° C.", "result": 0.39, "unit": "mg/L"},
      {"measurement": "MIC", "setting": "Streptococcus agalactiae", "result": 1.56, "unit": "mg/L"},
      {"measurement": "MIC", "setting": "Streptococcus agalactiae; read-out: MIC", "result": 1.56, "unit": "mg/L"}
    ]}
  ]
}
